# Organism: Rattus norvegicus
# Assay: DrugMatrix - Regimen: Daily Repeat
# Type: toxicity, organism-based, Sprague-Dawley
# Set-up: regimen Daily Repeat, gender Male, age 6-8 weeks
# Conditions: in vivo, po, route oral GAVAGE, vehicle .5 % CMC; for ABSOLUTE BASOPHIL / ABSOLUTE EOSINOPHIL / ABSOLUTE LYMPHOCYTE / ABSOLUTE SEGMENTED NEUTROPHIL / BASOPHIL / EOSINOPHIL / ERYTHROCYTE COUNT / HEMATOCRIT / HEMOGLOBIN / LEUKOCYTE COUNT / LYMPHOCYTE / MEAN CORPUSCULAR HEMOGLOBIN / MEAN CORPUSCULAR HEMOGLOBIN CONCENTRATION / MEAN CORPUSCULAR VOLUME / MONOCYTE / NEUTROPHIL / NUCLEATED RED BLOOD CELLS / PLATELET COUNT: tissue Blood; for ALANINE AMINOTRANSFERASE / ASPARTATE AMINOTRANSFERASE / BLOOD UREA NITROGEN / CARBON DIOXIDE / CHLORIDE / CHOLESTEROL / CREATINE PHOSPHOKINASE / CREATININE / GLUCOSE / LACTATE DEHYDROGENASE / LIPASE / PHOSPHORUS / POTASSIUM / SODIUM / TOTAL BILIRUBIN / TOTAL PROTEIN / URIC ACID: tissue Plasma
# [1] = 30 mg/kg, 72 h, dose level Low, time 3 day
# [2] = 30 mg/kg, 120 h, dose level Low, time 5 day
# [3] = 490 mg/kg, 72 h, dose level High, time 3 day
# [4] = 490 mg/kg, 120 h, dose level High, time 5 day
structure (smiles),measurement,setting,value
NC(=O)N1c2ccccc2C=Cc2ccccc21 [CARBAMAZEPINE],ABSOLUTE BASOPHIL,[1],0 CELLS/uL
same,ABSOLUTE EOSINOPHIL,[1],182 CELLS/uL
same,ABSOLUTE LYMPHOCYTE,[1],15035.33 CELLS/uL
same,ABSOLUTE SEGMENTED NEUTROPHIL,[1],1745.67 CELLS/uL
same,BASOPHIL,[1],0%
same,EOSINOPHIL,[1],1%
same,ERYTHROCYTE COUNT,[1],5.25 x10E6/uL
same,HEMATOCRIT,[1],33.47%
same,HEMOGLOBIN,[1],12.6 G/DL
same,LEUKOCYTE COUNT,[1],17.3 x10E3/uL
same,LYMPHOCYTE,[1],86.67%
same,MEAN CORPUSCULAR HEMOGLOBIN,[1],24.03 pg
same,MEAN CORPUSCULAR HEMOGLOBIN CONCENTRATION,[1],37.67 G/DL
same,MEAN CORPUSCULAR VOLUME,[1],63.8 fL
same,MONOCYTE,[1],2%
same,NEUTROPHIL,[1],10.33%
same,NUCLEATED RED BLOOD CELLS,[1],0 /100WBC
same,PLATELET COUNT,[1],1486.67 x10E3/uL
same,ALANINE AMINOTRANSFERASE,[1],52 u/L
same,ASPARTATE AMINOTRANSFERASE,[1],78.33 u/L
same,BLOOD UREA NITROGEN,[1],16.33 mg/dL
same,CARBON DIOXIDE,[1],25.67 mmol/L
same,CHLORIDE,[1],101.67 MEQ/L
same,CHOLESTEROL,[1],69.67 mg/dL
same,CREATINE PHOSPHOKINASE,[1],157.33 u/L
same,CREATININE,[1],0.2 mg/dL
same,GLUCOSE,[1],143.33 mg/dL
same,LACTATE DEHYDROGENASE,[1],208 u/L
same,LIPASE,[1],9 u/L
same,PHOSPHORUS,[1],11.33 mg/dL
same,POTASSIUM,[1],6.9 MEQ/L
same,SODIUM,[1],145 MEQ/L
same,TOTAL BILIRUBIN,[1],0.2 mg/dL
same,TOTAL PROTEIN,[1],5.53 G/DL
same,URIC ACID,[1],1.57 mg/dL
same,ABSOLUTE BASOPHIL,[2],0 CELLS/uL
same,ABSOLUTE EOSINOPHIL,[2],0 CELLS/uL
same,ABSOLUTE LYMPHOCYTE,[2],16159 CELLS/uL
same,ABSOLUTE SEGMENTED NEUTROPHIL,[2],1742.33 CELLS/uL
same,BASOPHIL,[2],0%
same,EOSINOPHIL,[2],0%
same,ERYTHROCYTE COUNT,[2],5.72 x10E6/uL
same,HEMATOCRIT,[2],35.57%
same,HEMOGLOBIN,[2],13.07 G/DL
same,LEUKOCYTE COUNT,[2],18.27 x10E3/uL
same,LYMPHOCYTE,[2],88.33%
same,MEAN CORPUSCULAR HEMOGLOBIN,[2],22.87 pg
same,MEAN CORPUSCULAR HEMOGLOBIN CONCENTRATION,[2],36.73 G/DL
same,MEAN CORPUSCULAR VOLUME,[2],62.2 fL
same,MONOCYTE,[2],2%
same,NEUTROPHIL,[2],9.67%
same,NUCLEATED RED BLOOD CELLS,[2],0 /100WBC
same,PLATELET COUNT,[2],1400 x10E3/uL
same,ALANINE AMINOTRANSFERASE,[2],40 u/L
same,ASPARTATE AMINOTRANSFERASE,[2],84 u/L
same,BLOOD UREA NITROGEN,[2],19.67 mg/dL
same,CARBON DIOXIDE,[2],25.33 mmol/L
same,CHLORIDE,[2],106.67 MEQ/L
same,CHOLESTEROL,[2],60 mg/dL
same,CREATINE PHOSPHOKINASE,[2],371 u/L
same,CREATININE,[2],0.18 mg/dL
same,GLUCOSE,[2],138.67 mg/dL
same,LACTATE DEHYDROGENASE,[2],600.67 u/L
same,LIPASE,[2],8.67 u/L
same,PHOSPHORUS,[2],11.47 mg/dL
same,POTASSIUM,[2],6.31 MEQ/L
same,SODIUM,[2],144.97 MEQ/L
same,TOTAL BILIRUBIN,[2],0.17 mg/dL
same,TOTAL PROTEIN,[2],6.17 G/DL
same,URIC ACID,[2],1.2 mg/dL
same,ABSOLUTE BASOPHIL,[3],0 CELLS/uL
same,ABSOLUTE EOSINOPHIL,[3],197 CELLS/uL
same,ABSOLUTE LYMPHOCYTE,[3],13021 CELLS/uL
same,ABSOLUTE SEGMENTED NEUTROPHIL,[3],740.67 CELLS/uL
same,BASOPHIL,[3],0%
same,EOSINOPHIL,[3],1%
same,ERYTHROCYTE COUNT,[3],6.01 x10E6/uL
same,HEMATOCRIT,[3],37.5%
same,HEMOGLOBIN,[3],14.23 G/DL
same,LEUKOCYTE COUNT,[3],14.27 x10E3/uL
same,LYMPHOCYTE,[3],91.33%
same,MEAN CORPUSCULAR HEMOGLOBIN,[3],23.77 pg
same,MEAN CORPUSCULAR HEMOGLOBIN CONCENTRATION,[3],37.97 G/DL
same,MEAN CORPUSCULAR VOLUME,[3],62.57 fL
same,MONOCYTE,[3],2%
same,NEUTROPHIL,[3],5.67%
same,NUCLEATED RED BLOOD CELLS,[3],0 /100WBC
same,PLATELET COUNT,[3],1370 x10E3/uL
same,ALANINE AMINOTRANSFERASE,[3],67 u/L
same,ASPARTATE AMINOTRANSFERASE,[3],98.33 u/L
same,BLOOD UREA NITROGEN,[3],20.33 mg/dL
same,CARBON DIOXIDE,[3],23.67 mmol/L
same,CHLORIDE,[3],100.67 MEQ/L
same,CHOLESTEROL,[3],62.67 mg/dL
same,CREATINE PHOSPHOKINASE,[3],423.33 u/L
same,CREATININE,[3],0.18 mg/dL
same,GLUCOSE,[3],127 mg/dL
same,LACTATE DEHYDROGENASE,[3],617.67 u/L
same,LIPASE,[3],9.33 u/L
same,PHOSPHORUS,[3],11.33 mg/dL
same,POTASSIUM,[3],6.92 MEQ/L
same,SODIUM,[3],141.13 MEQ/L
same,TOTAL BILIRUBIN,[3],0.17 mg/dL
same,TOTAL PROTEIN,[3],5.83 G/DL
same,URIC ACID,[3],1.87 mg/dL
same,ABSOLUTE BASOPHIL,[4],0 CELLS/uL
same,ABSOLUTE EOSINOPHIL,[4],174 CELLS/uL
same,ABSOLUTE LYMPHOCYTE,[4],14815.33 CELLS/uL
same,ABSOLUTE SEGMENTED NEUTROPHIL,[4],1394.67 CELLS/uL
same,BASOPHIL,[4],0%
same,EOSINOPHIL,[4],1%
same,ERYTHROCYTE COUNT,[4],6.46 x10E6/uL
same,HEMATOCRIT,[4],39.9%
same,HEMOGLOBIN,[4],15.17 G/DL
same,LEUKOCYTE COUNT,[4],17.07 x10E3/uL
same,LYMPHOCYTE,[4],86.67%
same,MEAN CORPUSCULAR HEMOGLOBIN,[4],23.47 pg
same,MEAN CORPUSCULAR HEMOGLOBIN CONCENTRATION,[4],38.03 G/DL
same,MEAN CORPUSCULAR VOLUME,[4],61.8 fL
same,MONOCYTE,[4],4%
same,NEUTROPHIL,[4],8.33%
same,NUCLEATED RED BLOOD CELLS,[4],0.67 /100WBC
same,PLATELET COUNT,[4],1286 x10E3/uL
same,ALANINE AMINOTRANSFERASE,[4],89 u/L
same,ASPARTATE AMINOTRANSFERASE,[4],125 u/L
same,BLOOD UREA NITROGEN,[4],18.67 mg/dL
same,CARBON DIOXIDE,[4],23.67 mmol/L
same,CHLORIDE,[4],105 MEQ/L
same,CHOLESTEROL,[4],67.33 mg/dL
same,CREATINE PHOSPHOKINASE,[4],770 u/L
same,CREATININE,[4],0.14 mg/dL
same,GLUCOSE,[4],120 mg/dL
same,LACTATE DEHYDROGENASE,[4],265.67 u/L
same,LIPASE,[4],9.5 u/L
same,PHOSPHORUS,[4],12.47 mg/dL
same,POTASSIUM,[4],6.33 MEQ/L
same,SODIUM,[4],149.25 MEQ/L
same,TOTAL BILIRUBIN,[4],0.2 mg/dL
same,TOTAL PROTEIN,[4],6.23 G/DL
same,URIC ACID,[4],2.13 mg/dL
